{
  "source": "patent US20210244720A1",
  "about": "“Therapeutic Tyrosine Kinase Inhibitors for Relapsing Multiple Sclerosis (RMS)” (Genzyme Corporation, priority 2020, published 2021)",
  "key": {"[1]": {"tested_on": "RGS1 mRNA in naive mouse microglia", "test": "Naive primary mouse microglia, RGS1 quantitative Real time PCR", "format": "cell-based", "details": "2.5 μM, 6 and 24 hours", "procedure": "Primary mouse microglia were prepared from postnatal mice as described above, and were treated with 2.5 μM of the BTKi inhibitor for 6 and 24 hours. RNA was isolated and was analyzed by quantitative Real time PCR (Taqman, Thermo Fisher)."}, "CYP3A": {"tested_on": "CYP3A", "test": "Preclinical drug metabolism studies, CYP3A", "format": "in vitro ADME", "description": "See Table 12 for the list of drugs not to be used."}, "[2]": {"test": "Pharmacokinetics in RMS patients, fed versus fasting status", "format": "in vivo, human", "details": "RMS patients of the Phase 2b study", "procedure": "An additional PK sample is collected 3 hours post-dose (±0.5 hour) at visits during Weeks 4 and 12 for all participants in both cohorts. Data of the most recent meal prior to PK sampling are noted in the eCRF.\nAdditional PK parameters such as Cmax, […], and AUC at steady state are estimated using a population PK approach.\nSamples from the two groups were obtained and anaylzed to evaluate pharmacokinetics parameters as described in Example 1.10 above."}, "[3]": {"tested_on": "participants with relapsing multiple sclerosis (RMS)", "test": "Phase 2b dose-finding study in RMS: brain MRI lesion counts", "details": "for New Gd-enhancing T1-hyperintense lesions: patients with 0 lesions, % / New Gd-enhancing T1-hyperintense lesions: patients with 1 lesion, % / New Gd-enhancing T1-hyperintense lesions: patients with 2 lesions, % / New Gd-enhancing T1-hyperintense lesions: patients with >=3 lesions, % / New or enlarging T2 lesions: patients with 0 lesions, % / New or enlarging T2 lesions: patients with 1 lesion, % / New or enlarging T2 lesions: patients with 2 lesions, % / New or enlarging T2 lesions: patients with >=3 lesions, % / Total Gd-enhancing T1-hyperintense lesions: patients with 0 lesions, % / Total Gd-enhancing T1-hyperintense lesions: patients with 1 lesion, % / Total Gd-enhancing T1-hyperintense lesions: patients with 2 lesions, % / Total Gd-enhancing T1-hyperintense lesions: patients with >=3 lesions, %: after 12 weeks", "method": "People diagnosed with RMS are eligible for enrollment as long as they meet all inclusion and no exclusion criteria.\nCranial (brain) MRI with and without Gd contrast is performed. Basic MRIs are performed for all participants at all study sites and consist of T2- and T1-weighted sequences without and with Gd contrast.\nNew T1 Gd-enhancing hyperintense and new and enlarging T2 lesions are evaluated at each visit as per the SoA (Table 1), comparing lesion count to that from the previous MRI scan. Unless specified otherwise, the baseline brain MRI is used as the reference to assess all MRI-derived endpoints. The baseline MRI is the last MRI performed before the randomization visit. Standardized endpoint evaluation is assured by central review of brain MRI scans. Blinded central review is performed for all MRI-derived endpoints. Magnetic resonance imaging reviewers are blinded to treatment assignments and to other participant data.\nThe first step of this procedure tests for an efficacy signal (compared to the null hypothesis of a flat, no dose-response curve) in a procedure that controls the type 1 error. […] The second step is the Dose estimation of the dose-response curve, provided that an efficacy signal is established in the first step.\nThe 4-week post-randomization placebo data from Cohort 2 (i.e., Week 4 data from Cohort 2) is utilized as the placebo data at Week 12 in analysis, under the assumption of a constant rate of Gd-enhancing T1-hyperintense lesion formation if participants would be receiving placebo over 12 weeks. Participants in Cohort 2 contribute to the placebo data (at Week 4) as well as the data for 4 BTK inhibitor doses (at Week 16). […] If step 1 yields significant results, the best fitting model from the 6 predefined candidate models is chosen using the generalized Akaike information criterion (AIC).\nThe first step of this procedure tested for an efficacy signal (compared to the null hypothesis of a flat, no dose-response curve) in a procedure that controls the type 1 error.\nThe MRI assessments were excluded from the analyses if the participant was receiving systemic corticosteroids within the 30 days prior to the MRI assessment date. The 4-week post-randomization placebo data from Cohort 2 (i.e., Week 4 data from Cohort 2) was utilized as the placebo data at Week 12 in analysis under the assumption of a constant rate of Gd-enhancing T1-hyperintense lesion formation if participants were to receive placebo over 12 weeks. Participants in Cohort 2 contributed to the placebo data (at Week 4) as well as the data for 4 BTK inhibitor doses (at Week 16). The 4-week placebo run-out data from Cohort 1 was not included in the analysis. […] Test statistics and adjusted p-values were provided for all 6 candidate models.\nFor each secondary endpoint, a similar negative binomial model and the MCP-Mod procedure were used. As it is reasonable to assume a constant rate of lesion formation over 12 weeks under placebo treatment, the same approach as that utilized for the primary endpoint was used, i.e., using the Week 4 data in Cohort 2 as the Week 12 placebo data while accounting for within-participant correlation. Descriptive summary statistics over time were provided for each of the 4 BTK inhibitor dose groups."}},
  "data": [
    {"molecule": "C=CC(=O)N1CCC[C@@H](n2c(=O)n(-c3ccc(Oc4ccccc4)cc3)c3c(N)nccc32)C1", "note": "[the BTK inhibitor, (R)-1-(1-acryloylpiperidin-3-yl)-4-amino-3-(4-phenoxyphenyl)-1H-imidazo[4,5-c]pyridin-2(3H)-one]", "values": [
      {"measurement": "RGS1 mRNA level in naive mouse microglia", "setting": "[1]", "value": "reduced"},
      {"measurement": "CYP3A metabolism", "setting": "CYP3A", "value": "substrate"},
      {"measurement": "median AUC, fed state compared to fasted state", "setting": "[2]", "value": "substantially increased"},
      {"measurement": "New Gd-enhancing T1-hyperintense lesions: patients with 0 lesions, %", "setting": "[3]; 5 mg daily", "value": "(71.0) %"},
      {"measurement": "New Gd-enhancing T1-hyperintense lesions: patients with 1 lesion, %", "setting": "[3]; 5 mg daily", "value": "(6.5) %"},
      {"measurement": "New Gd-enhancing T1-hyperintense lesions: patients with 2 lesions, %", "setting": "[3]; 5 mg daily", "value": "(9.7) %"},
      {"measurement": "New Gd-enhancing T1-hyperintense lesions: patients with >=3 lesions, %", "setting": "[3]; 5 mg daily", "value": "(12.9) %"},
      {"measurement": "New or enlarging T2 lesions: patients with 0 lesions, %", "setting": "[3]; 5 mg daily", "value": "(61.3) %"},
      {"measurement": "New or enlarging T2 lesions: patients with 1 lesion, %", "setting": "[3]; 5 mg daily", "value": "(9.7) %"},
      {"measurement": "New or enlarging T2 lesions: patients with 2 lesions, %", "setting": "[3]; 5 mg daily", "value": "(12.9) %"},
      {"measurement": "New or enlarging T2 lesions: patients with >=3 lesions, %", "setting": "[3]; 5 mg daily", "value": "(16.1) %"},
      {"measurement": "Total Gd-enhancing T1-hyperintense lesions: patients with 0 lesions, %", "setting": "[3]; 5 mg daily", "value": "(64.5) %"},
      {"measurement": "Total Gd-enhancing T1-hyperintense lesions: patients with 1 lesion, %", "setting": "[3]; 5 mg daily", "value": "(12.9) %"},
      {"measurement": "Total Gd-enhancing T1-hyperintense lesions: patients with 2 lesions, %", "setting": "[3]; 5 mg daily", "value": "(6.5) %"},
      {"measurement": "Total Gd-enhancing T1-hyperintense lesions: patients with >=3 lesions, %", "setting": "[3]; 5 mg daily", "value": "(16.1) %"},
      {"measurement": "New Gd-enhancing T1-hyperintense lesions: patients with 0 lesions, %", "setting": "[3]; 15 mg daily", "value": "(67.7) %"},
      {"measurement": "New Gd-enhancing T1-hyperintense lesions: patients with 1 lesion, %", "setting": "[3]; 15 mg daily", "value": "(16.1) %"},
      {"measurement": "New Gd-enhancing T1-hyperintense lesions: patients with 2 lesions, %", "setting": "[3]; 15 mg daily", "value": "(3.2) %"},
      {"measurement": "New Gd-enhancing T1-hyperintense lesions: patients with >=3 lesions, %", "setting": "[3]; 15 mg daily", "value": "(12.9) %"},
      {"measurement": "New or enlarging T2 lesions: patients with 0 lesions, %", "setting": "[3]; 15 mg daily", "value": "(48.4) %"},
      {"measurement": "New or enlarging T2 lesions: patients with 1 lesion, %", "setting": "[3]; 15 mg daily", "value": "(22.6) %"},
      {"measurement": "New or enlarging T2 lesions: patients with 2 lesions, %", "setting": "[3]; 15 mg daily", "value": "(9.7) %"},
      {"measurement": "New or enlarging T2 lesions: patients with >=3 lesions, %", "setting": "[3]; 15 mg daily", "value": "(19.4) %"},
      {"measurement": "Total Gd-enhancing T1-hyperintense lesions: patients with 0 lesions, %", "setting": "[3]; 15 mg daily", "value": "(64.5) %"},
      {"measurement": "Total Gd-enhancing T1-hyperintense lesions: patients with 1 lesion, %", "setting": "[3]; 15 mg daily", "value": "(19.4) %"},
      {"measurement": "Total Gd-enhancing T1-hyperintense lesions: patients with >=3 lesions, %", "setting": "[3]; 15 mg daily", "value": "(16.1) %"},
      {"measurement": "New Gd-enhancing T1-hyperintense lesions: patients with 0 lesions, %", "setting": "[3]; 30 mg daily", "value": "(81.8) %"},
      {"measurement": "New Gd-enhancing T1-hyperintense lesions: patients with 1 lesion, %", "setting": "[3]; 30 mg daily", "value": "(12.1) %"},
      {"measurement": "New Gd-enhancing T1-hyperintense lesions: patients with 2 lesions, %", "setting": "[3]; 30 mg daily", "value": "(3.0) %"},
      {"measurement": "New Gd-enhancing T1-hyperintense lesions: patients with >=3 lesions, %", "setting": "[3]; 30 mg daily", "value": "(3.0) %"},
      {"measurement": "New or enlarging T2 lesions: patients with 0 lesions, %", "setting": "[3]; 30 mg daily", "value": "(72.7) %"},
      {"measurement": "New or enlarging T2 lesions: patients with 1 lesion, %", "setting": "[3]; 30 mg daily", "value": "(15.2) %"},
      {"measurement": "New or enlarging T2 lesions: patients with 2 lesions, %", "setting": "[3]; 30 mg daily", "value": "(3.0) %"},
      {"measurement": "New or enlarging T2 lesions: patients with >=3 lesions, %", "setting": "[3]; 30 mg daily", "value": "(9.1) %"},
      {"measurement": "Total Gd-enhancing T1-hyperintense lesions: patients with 0 lesions, %", "setting": "[3]; 30 mg daily", "value": "(75.8) %"},
      {"measurement": "Total Gd-enhancing T1-hyperintense lesions: patients with 1 lesion, %", "setting": "[3]; 30 mg daily", "value": "(12.1) %"},
      {"measurement": "Total Gd-enhancing T1-hyperintense lesions: patients with 2 lesions, %", "setting": "[3]; 30 mg daily", "value": "(6.1) %"},
      {"measurement": "Total Gd-enhancing T1-hyperintense lesions: patients with >=3 lesions, %", "setting": "[3]; 30 mg daily", "value": "(6.1) %"},
      {"measurement": "New Gd-enhancing T1-hyperintense lesions: patients with 0 lesions, %", "setting": "[3]; 60 mg daily", "value": "(90.3) %"},
      {"measurement": "New Gd-enhancing T1-hyperintense lesions: patients with 1 lesion, %", "setting": "[3]; 60 mg daily", "value": "(6.5) %"},
      {"measurement": "New Gd-enhancing T1-hyperintense lesions: patients with 2 lesions, %", "setting": "[3]; 60 mg daily", "value": "(3.2) %"},
      {"measurement": "New or enlarging T2 lesions: patients with 0 lesions, %", "setting": "[3]; 60 mg daily", "value": "(87.1) %"},
      {"measurement": "New or enlarging T2 lesions: patients with 1 lesion, %", "setting": "[3]; 60 mg daily", "value": "(3.2) %"},
      {"measurement": "New or enlarging T2 lesions: patients with 2 lesions, %", "setting": "[3]; 60 mg daily", "value": "(9.7) %"},
      {"measurement": "Total Gd-enhancing T1-hyperintense lesions: patients with 0 lesions, %", "setting": "[3]; 60 mg daily", "value": "(87.1) %"},
      {"measurement": "Total Gd-enhancing T1-hyperintense lesions: patients with 1 lesion, %", "setting": "[3]; 60 mg daily", "value": "(3.2) %"},
      {"measurement": "Total Gd-enhancing T1-hyperintense lesions: patients with 2 lesions, %", "setting": "[3]; 60 mg daily", "value": "(6.5) %"},
      {"measurement": "Total Gd-enhancing T1-hyperintense lesions: patients with >=3 lesions, %", "setting": "[3]; 60 mg daily", "value": "(3.2) %"},
      {"measurement": "dose-response relationship, reduction in number of new active Gd-enhancing T1-hyperintense brain lesions", "setting": "[3]; 5-60 mg once daily, 12 weeks", "value": "demonstrating a dose-response relationship"},
      {"measurement": "new Gd-enhancing T1-hyperintense lesions in patients with higher AUC", "setting": "[3]; patients with higher exposure", "value": "very few or no new Gd-enhancing T1-hyperintense lesions"}
    ]}
  ]
}
